Entries after “also recorded” stand apart in the source; their conditions may differ. Read-outs that look alike come from different tables or passages of the source.
Legend:
[1] = system: NO production in LPS-stimulated RAW264.7 cells; design: method as in PMID 28333094; details: cited from earlier work
[2] = Transport in the human intestinal Caco-2 cell monolayer model; format: in vitro ADME; details: human; for Papp B→A at 90 min, 50 µM / efflux ratio at 90 min, 50 µM: Caco-2; for Papp B→A at 90 min, 50 µM: basolateral to apical; for efflux ratio at 90 min, 50 µM: ratio of Papp BL→AP to Papp AP→BL
Method: (§1) For confluence and differentiation, cells were seeded at a density of 1 × 10^5 cells/cm^2 into 12-well Transwell plates (insert diameter 12 mm, pore size 3.0 μm, membrane growth area 1.12 cm^2, Costar® #3402) and were allowed to grow for 21 days before the permeation experiment. On Day 21, the monolayers with TEER values >500 Ω·cm^2 were qualified for the transport experiment. The transport study was initiated by the careful removal of the culture medium from AP and BL side of the inserts. Caco-2 monolayers were rinsed twice with pre-warmed HBSS and were incubated by pre-warmed HBSS for 30 min at 37 °C. Stock solutions of test phenolic acid esters were prepared in DMSO and diluted to 50 µM with HBSS. […] The assayed solutions (50 µM) were added to the AP side (0.5 mL, for absorption transport) or BL side (1.5 mL, for efflux transport) of the inserts, while the receiving chamber contained the corresponding volume of HBSS. Incubation was performed at 37 °C for 90 min, with shaking at 50 rpm. Samples were collected from the inserts, then frozen, lyophilized, redissolved in MeOH, and injected into HPLC system for quantitative analysis.
(§2) The Papp values were calculated as the following equation:Papp = (dQ/dt) × (1/A) × (1/C0) (cm/s)(1) where dQ/dt is the rate of the appearance of the test compound on the receiver compartment (μmol/s), C0 is the initial test compound concentration on the donor compartment (μmol/mL), and A is the surface area of Caco-2 monolayer (cm^2).

Caco-2 cell monolayer = assay: as above; format: in vitro ADME; details: for absorption assignment: assigned from Papp AP→BL against propranolol and atenolol; for amount in the receiving chambers: HPLC quantification after transport
Method: as §1, §2

[3] = system: NO production in LPS-activated RAW264.7 macrophages; assay: NO inhibitory assay in LPS-activated RAW264.7 macrophages (Griess); format: cell-based, murine; details: Mus musculus, read-out: IC50 on NO production
Method: Briefly, RAW 264.7 cells were maintained in DMEM containing 10% FBS, in a constant humidity atmosphere of 5% CO2 and 95% air at 37 °C, seeded in 96-well culture plates (Costar® #3599, Cambridge, MA, USA) at a density of 3 × 10^4 cells/well for 12 h, and then stimulated with LPS (1 μg/mL) and treated with various concentrations of assayed compounds for 24 h. After that, the cell culture supernatant (100 μL) was collected to react with Griess reagent (100 μL) for 15 min at room temperature. The nitrite in culture medium was measured as an indicator of NO production. NaNO2 was used to generate a standard curve, and NO production was determined by measuring the optical density at 540 nm in comparison with the standard curve. […] The experiments were performed in parallel three times, and L-NIL was used as a positive control. Cell viability (>95%) was assessed by using an MTT assay. The IC50 values were calculated by the software SPSS 16.0 (SPSS Inc., Chicago, IL, USA).

[4] = Stability of the phenolic acid esters in HPLC method validation (Table S1); format: physicochemical
Method: Quantitative analysis of nine phenolic acid esters was performed on a Dionex Ultimate™ 3000 UHPLC system (Dionex Corp., Sunnyvale, CA, USA), comprised of Ultimate 3000 pump, autosampler, column compartment, and diode array detector. The signals were acquired and processed applying a Chromeleon version 6.80 software (Dionex Corp., Sunnyvale, CA, USA). HPLC separation was performed on a C18 Luna® column (250 mm × 4.60 mm i.d., 5 μm) (Phenomenex, Torrance, CA, USA). […] The detection wavelength was set at 305 nm for 2, 270 nm for 3, 259 nm for 4, 325 nm for 1 and 5–9. Column oven was maintained at 25 °C, and the injected volume was 20 μL. The calibration curves were constructed by plotting peak area (y, mAU × min) versus concentration (x, µM). The linear equations across 1–75 µM were y = 0.0087x − 0.0041 with r^2 of 0.9994 for 1, y = 0.0066x − 0.0013 with r^2 of 0.9999 for 2, y = 0.0667x − 0.0269 with r^2 of 0.9997 for 4, y = 0.0917x + 0.0040 with r^2 of 0.9998 for 5, y = 0.0614x − 0.0038 with r^2 of 0.9999 for 6, y = 0.0623x + 0.0051 with r^2 of 0.9999 for 8, and y = 0.0639x − 0.0464 with r^2 of 0.9978 for 9. […] Quantification was carried out by peak area measurements in comparison with the calibration curves.

RAW264.7 cells = assay: MTT cytotoxicity assay in RAW264.7 cells; details: viability less than 95% of control considered toxic
Method: The cell viability less than 95% of control was considered toxic.
Cell viability (>95%) was assessed by using an MTT assay.

[5] = Caco-2, apical to basolateral, 50 µM, incubation up to 90 min, n = 4
[6] = Caco-2, values as stated in text
[7] = 50 µM, incubation up to 90 min, n = 4
[8] = RAW264.7, LPS 1 μg/mL, 24 h, n = 3

| SMILES | IC50 [1] [µM] | Papp A→B at 90 min, 50 µM [2, 5] [×10⁻⁶ cm/s] | Papp A→B at 90 min, 50 µM [2, 6] [×10⁻⁶ cm/s] | Papp B→A at 90 min, 50 µM [2, 7] [×10⁻⁶ cm/s] | efflux ratio at 90 min, 50 µM [2] | absorption assignment (Caco-2 cell monolayer) | IC50 [3, 8] [µM] | Stability ([4]; QC 5 μM) [%] | Stability ([4]; QC 25 μM) [%] | Stability ([4]; QC 50 μM) [%] | cytotoxicity (MTT) (RAW264.7 cells; 0.78125–25 μM) | amount in the receiving chambers (Caco-2 cell monolayer) | cytotoxicity (MTT) (RAW264.7 cells; 3.125–100 μM) | cytotoxicity (MTT) (RAW264.7 cells; 1.5625–50 μM) | cytotoxicity (MTT) (RAW264.7 cells; 0.25 to 8 μM) | IC50 ([3]; RAW264.7, 24 h) [µM] |
| --- | --- | --- | --- | --- | --- | --- | --- | --- | --- | --- | --- | --- | --- | --- | --- | --- |
| COc1cc(/C=C/C(=O)OCC(O)COC(=O)/C=C/c2ccc(O)c(OC)c2)ccc1O [1,3-O-diferuloylglycerol] | 12 ± 1.07 | – | – | – | – | – | – | – | – | – | – | – | – | – | – | – |
| COc1cc(/C=C/C(=O)OCC(CO)OC(=O)/C=C/c2ccc(O)cc2)ccc1O (stereo not drawn) [1-O-feruloyl-2-O-p-coumaroylglycerol] | 9.12 ± 0.72 | – | – | – | – | – | – | – | – | – | – | – | – | – | – | – |
| CC/C(C)=C/CCOC(=O)/C=C/c1ccc(O)c(OC)c1 [Compound 1, 4-methyl-3-trans-hexenylferulate] | – | 0.5 ± 0.12 | < 1 | 0.62 ± 0.12 | 1.24 | poorly absorbed | 1.01 ± 0.08 | 93.56±1.02 | 95.65±0.56 | 92.25±1.63 | no toxicity | – | – | – | – | – |
| O=C(OCc1ccccc1)c1ccccc1O [Compound 2, benzylsalicylate] | – | 18 ± 1.63 | > 10 | 13.4 ± 0.63 | – | good absorption; also recorded: well-absorbed | 53.7 ± 4.13 | 98.84±2.09 | 94.57±1.85 | 97.25±2.09 | – | – | – | – | – | – |
| CC1(C)C2CCC1(C)C(OC(=O)C=Cc1ccccc1)C2 (stereo not drawn) [Compound 3, bornylcinnamate] | – | < 0.05 | < 0.1 | < 0.02 | – | poorly absorbed; also recorded: hardly permeate | 70.5 ± 25.9 | – | – | – | – | below the lower limit of detection | no toxicity | – | – | – |
| COc1ccc(C(=O)OCCc2ccc(O)cc2)cc1 [Compound 4, p-hydroxyphenethyl anisate] | – | 0.36 ± 0.04 | < 1 | 0.05 ± 0.01 | 0.15 | poorly absorbed | 11.1 ± 1.43 | 92.28±2.07 | 100.74±2.15 | 95.85±2.01 | – | – | no toxicity | – | – | – |
| COc1cc(/C=C/C(=O)OC2CC3CCC2(C)C3(C)C)ccc1O (stereo not drawn) [Compound 5, (−)-bornylferulate] | – | 0.08 ± 0.02 | < 0.1 | 0.13 ± 0.02 | 1.69 | poorly absorbed; also recorded: hardly permeate | 4.63 ± 1.73 | 96.29±0.99 | 94.56±0.96 | 95.85±1.01 | no toxicity | – | – | – | – | – |
| COc1cc(/C=C/C(=O)OC(C)C)ccc1O [Compound 6, isopropylferulate] | – | 17.6 ± 2.27 | > 10 | 13.8 ± 2.74 | 0.79 | good absorption; also recorded: well-absorbed | 12.6 ± 2.8 | 95.08±1.56 | 102.02±1.96 | 102.05±1.39 | – | – | – | no toxicity | – | – |
| CCCCCCCCCCCCCCCCCCCCCCCCCCCCCCOC(=O)/C=C/c1ccc(O)c(OC)c1 [Compound 7, trans-triacontyl-4-hydroxy-3-methoxycinnamate] | – | < 0.02 | < 0.1 | < 0.01 | – | poorly absorbed; also recorded: hardly permeate | – | – | – | – | – | below the lower limit of detection | – | – | had cytotoxicity | – |
| COc1ccc(CCOC(=O)/C=C/c2ccc(O)c(OC)c2)cc1 [Compound 8, 4-methoxyphenethylferulate] | – | 2.21 ± 0.07 | ~1 | 2.55 ± 0.44 | 1.15 | moderately absorbed | 2.47 ± 0.64 | 93.28±2.17 | 95.45±1.12 | 102.58±1.54 | – | – | – | no toxicity | – | – |
| COc1cc(/C=C/C(=O)OCCc2ccccc2)ccc1O [Compound 9, phenethylferulate] | – | 0.66 ± 0.16 | < 1 | 0.7 ± 0.18 | 1.06 | poorly absorbed | 2.73 ± 0.58 | 92.26±2.89 | 93.71±1.88 | 101.99±1.32 | – | – | – | no toxicity | – | – |
| COc1cc(/C=C/C(=O)O)ccc1O [Compound 10, ferulic acid, reference compound] | – | – | – | – | – | – | 67.9 ± 0.91 | – | – | – | – | – | – | – | – | – |
| O=C(O)/C=C/c1ccccc1 [Compound 11, cinnamic acid, reference compound] | – | – | – | – | – | – | > 200 | – | – | – | – | – | – | – | – | – |
| CC(=N)NCCCC[C@H](N)C(=O)O [L-NIL, reference compound] | – | – | – | – | – | – | – | – | – | – | – | – | – | – | – | 9.37 ± 1.57 |
| CC(C)NCC(O)COc1cccc2ccccc12 (stereo not drawn) [propranolol, reference compound] | – | – | 22.9 | – | – | – | – | – | – | – | – | – | – | – | – | – |

— publication PMC6152638, “Anti-Inflammatory Phenolic Acid Esters from the Roots and Rhizomes of Notopterygium incisium and Their Permeability in the Human Caco-2 Monolayer Cell Model” (Molecules : A Journal of Synthetic Chemistry and Natural …, 2017)
